Patent US20050048508A1, “Trehalose receptor and method for detecting trehalose with the same” (KABUSHIKI KAISHA HAYASHIBARA SEIBUTSU KAGAKU KENKYUJO, priority 2002, published 2005)

Molecular target: T1, T1R2 and T1R3 without G protein α-subunit (Mus musculus, UniProt Q925D8+Q925I4, E350G/G527D/I706N/P352R/R175Q)
T1 construct: expressed in transfected cells; host or cells: 293 cells, RCB 1637 (human embryonic kidney)
T1 sequence (Q925I4 20-843 R175Q/E350G/P352R/G527D): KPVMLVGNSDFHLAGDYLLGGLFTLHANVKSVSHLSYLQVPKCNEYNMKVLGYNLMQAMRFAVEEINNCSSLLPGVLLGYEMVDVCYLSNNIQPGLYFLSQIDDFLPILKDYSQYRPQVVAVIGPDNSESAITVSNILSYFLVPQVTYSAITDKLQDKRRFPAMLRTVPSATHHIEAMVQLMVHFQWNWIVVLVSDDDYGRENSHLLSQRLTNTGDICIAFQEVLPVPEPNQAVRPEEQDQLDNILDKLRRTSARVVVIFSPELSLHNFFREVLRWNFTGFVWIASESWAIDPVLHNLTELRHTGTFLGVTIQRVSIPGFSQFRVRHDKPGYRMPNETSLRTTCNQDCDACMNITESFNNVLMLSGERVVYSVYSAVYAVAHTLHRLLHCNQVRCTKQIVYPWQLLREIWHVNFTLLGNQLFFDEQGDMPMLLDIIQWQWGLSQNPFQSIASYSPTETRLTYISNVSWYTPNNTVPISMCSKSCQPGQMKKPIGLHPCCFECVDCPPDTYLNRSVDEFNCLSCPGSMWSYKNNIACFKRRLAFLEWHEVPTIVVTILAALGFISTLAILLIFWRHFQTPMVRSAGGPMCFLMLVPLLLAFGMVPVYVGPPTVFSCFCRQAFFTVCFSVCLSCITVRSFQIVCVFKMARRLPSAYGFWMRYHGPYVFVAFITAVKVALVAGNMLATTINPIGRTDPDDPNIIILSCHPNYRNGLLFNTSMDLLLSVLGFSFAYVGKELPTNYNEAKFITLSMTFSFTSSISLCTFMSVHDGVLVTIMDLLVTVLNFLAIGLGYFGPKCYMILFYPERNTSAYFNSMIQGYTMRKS
T1 sequence (Q925D8 21-858 I706N): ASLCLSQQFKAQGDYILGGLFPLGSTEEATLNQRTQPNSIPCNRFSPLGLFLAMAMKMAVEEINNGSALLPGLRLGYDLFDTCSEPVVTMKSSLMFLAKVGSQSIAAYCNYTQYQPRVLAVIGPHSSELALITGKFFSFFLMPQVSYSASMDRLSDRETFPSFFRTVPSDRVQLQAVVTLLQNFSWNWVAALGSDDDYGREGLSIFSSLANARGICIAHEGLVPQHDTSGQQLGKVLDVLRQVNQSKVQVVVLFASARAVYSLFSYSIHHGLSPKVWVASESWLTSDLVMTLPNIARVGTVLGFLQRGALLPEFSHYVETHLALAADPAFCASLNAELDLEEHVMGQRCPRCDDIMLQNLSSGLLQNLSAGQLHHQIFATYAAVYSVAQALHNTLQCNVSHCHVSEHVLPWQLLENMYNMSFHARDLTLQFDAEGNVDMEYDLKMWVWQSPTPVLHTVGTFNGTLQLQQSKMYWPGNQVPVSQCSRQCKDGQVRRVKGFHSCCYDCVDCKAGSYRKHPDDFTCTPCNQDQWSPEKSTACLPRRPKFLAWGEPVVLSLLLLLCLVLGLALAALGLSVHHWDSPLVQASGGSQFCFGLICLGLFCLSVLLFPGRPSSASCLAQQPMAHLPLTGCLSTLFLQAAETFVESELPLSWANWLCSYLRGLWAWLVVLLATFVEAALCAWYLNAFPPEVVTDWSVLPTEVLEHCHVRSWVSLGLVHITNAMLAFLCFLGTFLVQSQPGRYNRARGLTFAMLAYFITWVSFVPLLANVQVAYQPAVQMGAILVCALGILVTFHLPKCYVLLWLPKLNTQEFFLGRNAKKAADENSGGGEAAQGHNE
Assay: Intracellular calcium ion assay, 293 cells expressing T1R2 and T1R3 without G protein α-subunits
Assay type: cell-based
Conditions: 293 cells: T1R2 + T1R3, no G protein α-subunit; 0.67 ml of 1 M saccharide solution added to 2 ml cell suspension

| SMILES | Influx of calcium ion |
| --- | --- |
| OC[C@H]1O[C@@](CO)(O[C@H]2O[C@H](CO)[C@@H](O)[C@H](O)[C@H]2O)[C@@H](O)[C@@H]1O [Sucrose, reference compound] | Negative |
| OC[C@H]1O[C@H](O[C@H]2O[C@H](CO)[C@@H](O)[C@H](O)[C@H]2O)[C@H](O)[C@@H](O)[C@@H]1O [Trehalose] | Negative |
